{"source": "patent US5352608A", "about": "(priority 1992, dated 1994)", "key": {"Rhodospirillum rubrum Ha": {"test_system": "Rhodospirillum rubrum Ha", "assay": "Intrinsic HLR to TeO3^2- (MIC)", "format": "cell-based"}, "[1]": {"test_system": "Rhodopseudomonas palustris 1e5", "assay": "Intrinsic HLR to TeO3^2- (MIC)", "format": "cell-based"}, "[2]": {"test_system": "Rhodobacter sphaeroides 2.4.7", "assay": "Intrinsic HLR to TeO3^2- (MIC)", "format": "cell-based"}, "[3]": {"test_system": "Rhodocyclus gelatinosus str-1", "assay": "Intrinsic HLR to TeO3^2- (MIC)", "format": "cell-based"}, "R. sphaeroides MM1004": {"test_system": "R. sphaeroides MM1004", "format": "cell-based, Rhodobacter sphaeroides", "conditions": "SMM succinate", "method": "All Proteobacteria were grown at 30° C. with the exception of E. coli which was cultured at 37° C. on a Gyrotary shaker. Cultures of R. sphaeroides and R. gelatinosus were grown in LB, YP, or SMM containing either 0.4% succinate, 0.4% malate, or 0.4% butyrate as a carbon source. Cultures of R. capsulatus were grown in RCVB minimal medium containing 0.4% malate as a carbon source; R. rubrum was grown in SMM containing 0.4% malate, and 0.1% yeast extract. R. palustris and R. viridis were grown in SMM containing 0.4% malate, 0.1% yeast extract, and 50 μg/ml each of p-aminobenzoic acid and cyanocobalamin. […] Anaerobic-dark growth of R. sphaeroides on SMM medium containing DMSO, and photoheterotrophic growth conditions have been previously reported.\nSeveral growth conditions were examined to determine requirements for tellurite reduction in vivo. Table 5 indicates the growth conditions tested.\n^a MIC were determined in SMM containing succinate at 30° C.\n^c Supplemented with 60 mM DMSO."}, "[4]": {"test_system": "tellurite reductase activity, R. sphaeroides 2.4.1", "assay": "TeO3^2- -dependent FADH2 oxidation in subcellular fractions", "format": "biochemical, Rhodobacter sphaeroides", "conditions": "for FADH2 oxidation: 100 μg/ml K2 TeO3"}, "[5]": {"test_system": "tellurite reductase activity, R. sphaeroides BC17", "assay": "TeO3^2- -dependent FADH2 oxidation in subcellular fractions", "format": "biochemical, Rhodobacter sphaeroides", "conditions": "for FADH2 oxidation: 100 μg/ml K2 TeO3"}, "[6]": {"test_system": "tellurite reductase activity, R. sphaeroides PUHA1", "assay": "TeO3^2- -dependent FADH2 oxidation in subcellular fractions", "format": "biochemical, Rhodobacter sphaeroides", "conditions": "100 μg/ml K2 TeO3"}, "R. sphaeroides 2.4.1": {"test_system": "R. sphaeroides 2.4.1", "assay": "Hydrogen evolution from oxyanion reduction", "format": "cell-based, Rhodobacter sphaeroides"}, "Proteobacteria": {"test_system": "Proteobacteria", "assay": "Intrinsic HLR to tellurite, comparison across strains", "format": "cell-based", "conditions": "aerobic vs photosynthetic; exception R. gelatinosus"}}, "note": "Read-outs that look alike come from different tables or passages of the source.", "data": [{"smiles": "O=[Te]([O-])[O-].[K+].[K+]", "note": "[K2 TeO3]", "values": [{"measurement": "Resistance to tellurite in words", "setting": "Rhodospirillum rubrum Ha", "result": "low resistance"}, {"measurement": "MIC K2 TeO3", "setting": "Rhodospirillum rubrum Ha; aerobic, minimal medium", "result": 20, "unit": "µg/mL"}, {"measurement": "MIC K2 TeO3", "setting": "Rhodospirillum rubrum Ha; photosynthetic, 10 W/m^2", "result": 10, "unit": "µg/mL"}, {"measurement": "MIC K2 TeO3", "setting": "[1]; aerobic, minimal medium", "result": 200, "unit": "µg/mL"}, {"measurement": "MIC K2 TeO3", "setting": "[1]; photosynthetic, 10 W/m^2", "result": 100, "unit": "µg/mL"}, {"measurement": "MIC K2 TeO3", "setting": "[2]; aerobic, minimal medium", "result": 800, "unit": "µg/mL"}, {"measurement": "MIC K2 TeO3", "setting": "[2]; photosynthetic, 10 W/m^2", "result": 500, "unit": "µg/mL"}, {"measurement": "Resistance to tellurite in words", "setting": "[3]", "result": "low resistance"}, {"measurement": "MIC K2 TeO3", "setting": "[3]; aerobic, minimal medium", "result": 5, "unit": "µg/mL"}, {"measurement": "MIC K2 TeO3", "setting": "[3]; photosynthetic, 10 W/m^2", "result": 10, "unit": "µg/mL"}, {"measurement": "MIC K2 TeO3", "setting": "R. sphaeroides MM1004; aerobic", "result": 800, "unit": "µg/mL"}, {"measurement": "MIC K2 TeO3", "setting": "R. sphaeroides MM1004; photosynthetic 10 W/m^2", "result": 550, "unit": "µg/mL"}, {"measurement": "FADH2 oxidation", "setting": "[4]; cytoplasm", "result": 60, "unit": "nmol/min/mg"}, {"measurement": "FADH2 oxidation", "setting": "[4]; membrane", "result": 300, "unit": "nmol/min/mg"}, {"measurement": "FADH2 oxidation", "setting": "[4]; periplasm", "result": 1, "unit": "nmol/min/mg"}, {"measurement": "Reductase activity in words", "setting": "[4]; periplasmic and cytoplasmic fractions of all strains", "result": "Negligible reductase activity"}, {"measurement": "FADH2 oxidation", "setting": "[5]; cytoplasm", "result": 20, "unit": "nmol/min/mg"}, {"measurement": "TeO3^2- -dependent FADH2 oxidase activity in words", "setting": "[5]; in vitro", "result": "Neither BC17 nor PUHA1, two mutants which were previously shown to be tellurite sensitive under both aerobic and anaerobic-dark/DMSO growth conditions, expressed significant levels"}, {"measurement": "FADH2 oxidation", "setting": "[5]; membrane", "result": 51, "unit": "nmol/min/mg"}, {"measurement": "FADH2 oxidation", "setting": "[5]; periplasm", "result": 2, "unit": "nmol/min/mg"}, {"measurement": "FADH2 oxidation", "setting": "[6]; cytoplasm", "result": 37, "unit": "nmol/min/mg"}, {"measurement": "FADH2 oxidation", "setting": "[6]; membrane", "result": 28, "unit": "nmol/min/mg"}, {"measurement": "FADH2 oxidation", "setting": "[6]; periplasm", "result": 3, "unit": "nmol/min/mg"}, {"measurement": "Gas evolved", "setting": "R. sphaeroides 2.4.1; 1 atm, 303° K., major component H2", "result": 8.37, "unit": "mmol"}, {"measurement": "Water displaced from the gas collection vessel", "setting": "R. sphaeroides 2.4.1; culture grown in presence of TeO3^2-", "result": 208, "unit": "mL"}, {"measurement": "H2 evolved per mmole of Te^o deposited", "setting": "R. sphaeroides 2.4.1; per mmole Te^o", "result": "approximately 11.5 mmoles"}, {"measurement": "MIC increase, cells grown aerobically", "setting": "Proteobacteria", "result": "approximately 50%"}]}]}
